Results as given in patent US5210089A, “D-rhamnono-1,5-lactone” (Monsanto Company, priority 1992, dated 1993).

Tests used:
cytosolic β-glucosidase = molecular target: T1, cytosolic β-glucosidase (Homo sapiens, UniProt Q9H227); test: Human liver glycosidase assay, cytosolic β-glucosidase; type: biochemical; conditions: for inhibition at 1000 µM: 1 mM compound; for IC50: read-out: I50, cytosolic β-glucosidase
T1 construct: human liver extracts; from tissue; host or cells: human liver extracts
T1 sequence (Q9H227 1-469): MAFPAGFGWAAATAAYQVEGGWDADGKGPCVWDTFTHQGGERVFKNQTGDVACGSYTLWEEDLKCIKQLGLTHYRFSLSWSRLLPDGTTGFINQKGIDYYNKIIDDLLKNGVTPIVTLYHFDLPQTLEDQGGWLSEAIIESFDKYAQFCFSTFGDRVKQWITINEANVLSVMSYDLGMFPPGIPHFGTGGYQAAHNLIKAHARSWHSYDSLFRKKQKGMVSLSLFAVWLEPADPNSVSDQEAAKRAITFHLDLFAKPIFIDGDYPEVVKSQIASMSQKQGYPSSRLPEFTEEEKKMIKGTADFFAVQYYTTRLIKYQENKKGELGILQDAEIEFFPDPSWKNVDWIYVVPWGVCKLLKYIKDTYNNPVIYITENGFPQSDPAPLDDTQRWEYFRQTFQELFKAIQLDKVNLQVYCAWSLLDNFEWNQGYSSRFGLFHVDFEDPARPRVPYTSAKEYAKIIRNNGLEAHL
Description: (§1) Melting points were recorded on a Kofler hot block. Proton nuclear magnetic resonance (δH) spectra were recorded on Varian Gemini 200 (at 200 MHz), Bruker WH 300 (300 MHz), or Bruker AM 500 (500 MHz) spectrometers. Carbon nuclear magnetic resonance (δC) spectra were recorded on a Varian Gemini 200 (50 MHz) or a Bruker 250 (62.9 MHz) spectrometer. Multiplicities were assigned using DEPT sequence on the Gemini and by off resonance decoupling on the Bruker. Spectra run in D2 O were referenced to methanol as an internal standard. All chemical shifts are quoted on the δ-scale. Infrared spectra were recorded on a Perkin-Elmer 297, or on a Perkin-Elmer 781 spectrophotometer. Mass spectra were recorded on VG Micromass 30F, ZAB lF, Masslab 20-250 or Trio-1 GCMS (DB-5 column) spectrometers using desorption chemical ionization (NH3 DCI), electron impact (EI), chemical ionization (NH3 CI) and fast atom bombardment (FAB) techniques, as stated. […] Concentrations were given in g/100 ml. Hydrogenations were run under an atmosphere of hydrogen gas maintained by inflated balloon. Microanalyses were performed by the microanalysis service of the DysonPerrins laboratory, Oxford UK. Thin layer chromatography (t.l.c.) was carried out on aluminum sheets coated with 60F254 silica. Plates were developed using either 5% v/v concentrated sulphuric acid in methanol, 0.2% w/v cerium (IV) sulphate and 5% ammonium molybdate in 2M sulphuric acid and 0.5% ninhydrin in methanol. Flash chromatography was carried out using Sorbsil C60 40/60 silica. Ion-exchange chromatography was performed using Dowex 50W-X8 (H) and Sigma CG 400 (Cl) resins. The resins were washed with 2M hydrochloric acid and 2M sodium hydroxide solution, respectively, and subsequently with distilled water, prior to use. Solvents and commercially available reagents were dried and purified before use according to standard procedures; dichloromethane was refluxed over and distilled from calcium hydride, N,N-dimethylformamide was distilled under reduced pressure from calcium hydride, methanol was distilled from magnesium methoxide, pyridine was distilled from, and stored over, potassium hydroxide and tetrahydrofuran was distilled from a purple solution of sodium benzophenone ketyl immediately before use. Hexane was distilled at 68° C. before use to remove involatile fractions. 2,3-O-Isopropylidene-L-gulono-1,4-lactone (9) [H. Ogura et al., J. Oro. Chem. 37, 72 (1972); G. W. J. Fleet Tetrahedron 45, 319 (1989)]and 2,3-O-isopropylidene-D-gulono-1,4-lactone (15) [L. M. Lerner et al., J. Org. […]
(§2) The enzymes included human liver glycosidases and naringinase. The latter enzyme is a readily available endo-L-rhamnosidase described by Romero et al., Anal. Biochem. 149, 566 (1985).

β-mannosidase = molecular target: T2, β-mannosidase (Homo sapiens, UniProt O00462); test: Human liver glycosidase assay, β-mannosidase; type: biochemical; set-up: human liver extracts; from tissue; host or cells: human liver extracts
T2 sequence (O00462 18-879): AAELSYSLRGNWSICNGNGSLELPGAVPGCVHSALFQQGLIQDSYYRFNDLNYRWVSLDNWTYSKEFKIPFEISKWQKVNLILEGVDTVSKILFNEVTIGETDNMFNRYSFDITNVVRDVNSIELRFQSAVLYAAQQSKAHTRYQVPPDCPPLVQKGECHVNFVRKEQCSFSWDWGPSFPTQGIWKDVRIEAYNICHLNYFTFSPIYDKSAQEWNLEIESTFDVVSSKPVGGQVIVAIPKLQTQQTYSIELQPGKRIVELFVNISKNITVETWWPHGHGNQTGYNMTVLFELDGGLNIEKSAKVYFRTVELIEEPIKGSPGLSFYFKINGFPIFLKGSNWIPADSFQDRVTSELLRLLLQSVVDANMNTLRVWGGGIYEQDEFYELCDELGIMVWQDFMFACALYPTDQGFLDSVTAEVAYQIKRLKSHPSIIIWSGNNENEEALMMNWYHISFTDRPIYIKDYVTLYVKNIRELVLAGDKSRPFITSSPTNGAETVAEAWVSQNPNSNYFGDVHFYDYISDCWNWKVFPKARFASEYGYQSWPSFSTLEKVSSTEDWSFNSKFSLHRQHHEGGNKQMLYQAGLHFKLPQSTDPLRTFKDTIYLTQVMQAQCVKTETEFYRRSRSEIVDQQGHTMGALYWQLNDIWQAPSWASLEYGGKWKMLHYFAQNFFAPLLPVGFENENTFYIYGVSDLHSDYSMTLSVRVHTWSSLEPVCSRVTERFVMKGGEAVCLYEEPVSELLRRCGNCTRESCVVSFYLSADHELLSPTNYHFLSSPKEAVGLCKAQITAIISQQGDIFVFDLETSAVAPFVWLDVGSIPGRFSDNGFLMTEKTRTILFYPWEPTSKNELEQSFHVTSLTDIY
Description: as §1, §2

## C[C@H]1NC(=O)[C@@H](O)[C@@H](O)[C@@H]1O [D-Rhamno-1,5-lactam (6), 6-Deoxy-D-mannono-δ-lactam]
Cytosolic β-glucosidase
  inhibition at 1000 µM: 67%
  IC50: 700 µM
β-mannosidase
  Inhibition of β-mannosidase (in words): inhibitor of α- and β-mannosidases

## C[C@@H]1NC(=O)[C@H](O)[C@H](O)[C@H]1O [L-Rhamno-1,5-lactam (8), 6-Deoxy-L-mannono-δ-lactam]
β-mannosidase
  Inhibition of β-mannosidase (in words): no inhibitory activity

## O=C1N[C@H](CO)[C@@H](O)[C@H](O)[C@@H]1O [Mannono-1,5-lactam (2), D-mannonolactam]
Cytosolic β-glucosidase
  inhibition at 1000 µM: 98%
  IC50: 50 µM
β-mannosidase
  IC50: 10 µM
β-mannosidase; read-out: Inhibition (%) at 1 mM, β-mannosidase
  inhibition at 1000 µM: 99%
